In brackets after ≈: the same amount, converted by molar mass. Several values for one entry are separate records, joined by “and”; a condition that tells them apart may be missing. Equal values may be shown once.
Assays:
Rhabditis sp. = assay: Anthelmintic activity assay on nematode culture; assay type: cell-based; conditions: 24 h exposure
Description: All compounds in the anthelmintic activity study were prepared in the form of a homogeneous suspension. The anthelmintic activity was tested according to the procedure developed by Bogucka-Kock and Kołodziej. The tested compounds were added to the culture of Rhabditis sp. at experimentally determined concentrations. […] LC50 values (lethal concentration) were determined for two active substances. It was defined as the amount of the substance causing the death of 50% of nematodes.

[1] = test system: lipid oxidation stimulated by iron (II) ions in rat brain homogenate; assay: Antioxidant activity: MDA from iron(II)-stimulated lipid oxidation in brain homogenate; assay type: biochemical; conditions: 10 μM compound; for MDA: 0.1% FeCl2 and 1 mM ascorbic acid, 1 h 37 °C; for Antioxidative Potential Value: reduction of MDA vs control sample
Description: The antioxidant potential of the newly synthesized derivatives was assessed based on the analysis of the malondialdehyde (MDA) concentration formed as a product of lipid oxidation stimulated by iron (II) ions.
The antioxidant activity of the tested compounds was measured in the brain homogenate of intact rats bred at the Central Laboratory of Experimental Animals of the Medical University of Warsaw. Brains were collected according to procedure no. 3R. A 10% (m/v) rat brain solution was obtained by homogenizing freshly prepared brain washed with cold 0.9% NaCl in cold 10 mM TRIS-HCl buffer, with pH = 7.5. The homogenate was centrifuged at 4 °C (2000 rpm) to obtain supernatant 1 [54, 60]. Sample preparation was as follows: 100 μM stock solutions of test compounds in DMSO were added to […] of supernatant 1 to a final concentration of 10 μM. The reference sample contained brain homogenate supernatant and DMSO.
Freshly prepared solutions of 0.1% FeCl2 (0.2 mL) and 1 mM ascorbic acid (0.4 mL) were added to all samples to initiate the oxidation reaction. Samples were incubated for 1 h at 37 °C. Then, 8.1% sodium dodecyl sulfate (SDS) solution was added to inhibit the oxidation reaction. Acetate buffer (pH = 3.4) and 0.8% thiobarbituric acid (TBA) solution (pH = 6) were added to each sample to determine the concentration of malondialdehyde (MDA). The samples were incubated for 1 h at 100 °C, then cooled on ice and centrifuged (10 min, 4000 rpm). The absorbance was measured at a wavelength of 532 nm against a blank sample (acetate buffer with TBA solution).
Calculation of malondialdehyde (MDA) concentration was performed as follows: MDA concetration=∆ A532 nm×1.56×10^−6 [nmol MDA/h/g tissue]

[2] = test system: Staphylococcus epidermidis ATCC 12228; assay: Broth microdilution MIC / MBC; assay type: cell-based; conditions: ATCC12228, S. epidermidis ATCC 12228
Description: (§1) The microdilution method was used to determine the MIC values of newly synthesized compounds. The antimicrobial activity of the thiosemicarbazides series was tested on ten reference bacterial strains purchased from the American Type Culture Collection (ATCC). Seven Gram-positive reference strains (S. aureus ATCC 29213, S. aureus ATCC 43300, S. aureus ATCC 6538, S. aureus ATCC 25923, S. epidermidis ATCC 12228, M. luteus ATCC 10240, and B. cereus ATCC 10876) and three Gram-negative reference bacteria (K. pneumoniae ATCC 13883, E. coli ATCC 25922, S. typhimurium ATCC 14028) were used. These bacterial strains are representatives of microorganisms that can cause the most common opportunistic infections among humans. The bacteria were grown on Mueller–Hinton agar (MHA) plates before examination. To perform the assay, all bacteria were placed in sterile saline (0.85% NaCl) to obtain a suspension of the optical density of the 0.5 McFarland standard (1.50 × 10^8 colony-forming units (CFUs)/mL). A solution of the tested compounds was prepared in dimethyl sulfoxide (DMSO) at a concentration of 50 mg/mL as a stock solution.
(§2) A 96-well microtiter plate and microbroth two-fold dilution method was used to determine the minimum inhibitory concentration (MIC) according to the EUCAST (European Committee on Antimicrobial Susceptibility Testing) reference recommendation. The solutions were then diluted with Mueller–Hinton broth (MHB, Biomaxima, Lublin, Poland) medium to obtain a solution with a basic concentration of 1000 µg/mL. Then, using the two-fold dilution method with MHB, the tested compounds were introduced into the wells of the microplate to provide a final concentration in the range of 0.49 to 1000 µg/mL. Then, 2 μL of bacterial inoculum with a density of 0.5 McFarland standard was added into each well. Each well was filled with a total volume of 100 μL. Then, microtiter plates were incubated for 18 ± 2 h at 35 °C. After incubation, the growth of bacteria was monitored by a Biotek ELx800 (Biokom, Janki, Poland) spectrophotometer at 600 nm (OD600). The MIC assays were performed in triplicate.
(§3) A negative control with MHB and without tested compounds was used. Clinically used anti-bacterial agents, cefuroxime and vancomycin, were included as positive controls for the purpose of comparison in a concentration range from 0.007 to 15.625 µg/mL.
(§4) The in vitro antimicrobial activity of the tested compounds was determined by the MIC, which was defined as the lowest concentration of the compound tested at which no visible growth of the test bacteria was observed. The MBC (the minimum bactericidal concentration) is defined as the lowest concentration of antimicrobial agent resulting in reduction in the viability of the initial bacterial inoculum by ≥99.9% on the plate. Generally, an MBC/MIC ratio less than 4 is considered bactericidal for an antimicrobial, and an MBC/MIC > 8 is indicative of bacteriostatic activity. For the MBC test, the Mueller–Hinton agar (MHA, Biomaxima, Poland) plate assay was used. MBC was determined after the broth dilution period of an MIC test has been completed. After the MIC detection, 5 µL aliquots from each well were plated on an MHA plate and grown at 35 °C overnight. The MBC values were determined by observing the first clear area on the agar plate that has no observable bacterial growth.

[3] = test system: Staphylococcus aureus ATCC 43300; assay: Broth microdilution MIC / MBC; assay type: cell-based; conditions: S. aureus ATCC 43300 (MRSA); for MIC: read-out: MIC; for MBC: read-out: MBC
Description: as §1, §2, §3, §4

[4] = test system: Micrococcus luteus ATCC 10240; assay: Broth microdilution MIC / MBC; assay type: cell-based; conditions: ATCC10240, M. luteus ATCC 10240
Description: as §1, §2, §3, §4

[5] = test system: Staphylococcus aureus ATCC 29213; assay: Broth microdilution MIC / MBC; assay type: cell-based; conditions: ATCC29213, S. aureus ATCC 29213
Description: as §1, §2, §3, §4

[6] = test system: Bacillus cereus ATCC 10876; assay: Broth microdilution MIC / MBC; assay type: cell-based; conditions: ATCC10876, B. cereus ATCC 10876
Description: as §1, §2, §3, §4

[7] = test system: Staphylococcus aureus ATCC 6538; assay: Broth microdilution MIC / MBC; assay type: cell-based; conditions: ATCC6538, S. aureus ATCC 6538
Description: as §1, §2, §3, §4

[8] = test system: S. aureus reference strains; assay: Broth microdilution MIC / MBC, summary over S. aureus strains; assay type: cell-based, Staphylococcus aureus
Description: (§5) The microdilution method was used to determine the MIC values of newly synthesized compounds. The antimicrobial activity of the thiosemicarbazides series was tested on ten reference bacterial strains purchased from the American Type Culture Collection (ATCC). Seven Gram-positive reference strains (S. aureus ATCC 29213, S. aureus ATCC 43300, S. aureus ATCC 6538, S. aureus ATCC 25923, S. epidermidis ATCC 12228, M. luteus ATCC 10240, and B. cereus ATCC 10876) and three Gram-negative reference bacteria (K. pneumoniae ATCC 13883, E. coli ATCC 25922, S. typhimurium ATCC 14028) were used. […]
(§6) A 96-well microtiter plate and microbroth two-fold dilution method was used to determine the minimum inhibitory concentration (MIC) according to the EUCAST (European Committee on Antimicrobial Susceptibility Testing) reference recommendation. […] After incubation, the growth of bacteria was monitored by a Biotek ELx800 (Biokom, Janki, Poland) spectrophotometer at 600 nm (OD600). […]
(§7) The in vitro antimicrobial activity of the tested compounds was determined by the MIC, which was defined as the lowest concentration of the compound tested at which no visible growth of the test bacteria was observed. […] MBC was determined after the broth dilution period of an MIC test has been completed. […] The MBC values were determined by observing the first clear area on the agar plate that has no observable bacterial growth.

Gram-positive bacteria = assay: Broth microdilution MIC / MBC, summary over Gram-positive strains; assay type: cell-based
Description: as §5, §6, §7

| MIC [2] [µg/mL] | MIC [3] [µg/mL] | MIC [4] [µg/mL] | MIC [5] [µg/mL] | MIC [6] [µg/mL] | MIC [7] [µg/mL] | melting point [°C] | MIC range ([8]; S. aureus ATCC 43300 MRSA and all MSSA reference strains) [µg/mL] | MIC range (Gram-positive bacteria) [µg/mL] | Compound | LC50 (Rhabditis sp.) [µg/mL] | MDA [1] [mM × 10^−3] | Antioxidative Potential Value [1] | MBC ([8]; Staphylococcus aureus, all tested S. aureus reference strains) [µg/mL] | MBC [2] [µg/mL] | MBC [3] [µg/mL] | MBC [4] [µg/mL] | MBC [5] [µg/mL] | MBC [6] [µg/mL] | MBC [7] [µg/mL] | MBC (Gram-positive bacteria) [µg/mL] |
| --- | --- | --- | --- | --- | --- | --- | --- | --- | --- | --- | --- | --- | --- | --- | --- | --- | --- | --- | --- | --- |
| 1000 (≈ 2950 µM) | > 1000 | 1000 (≈ 2950 µM) | > 1000 | > 1000 | > 1000 | 176.4 | – | – | O=C(NNC(=S)Nc1ccccc1)c1cccc(C(F)(F)F)c1 [Compound 3f, 1-(3-Trifluoromethylbenzoyl)-4-(phenyl)thiosemicarbazide] | – | 1.450 ± 0.006 | 46.3% | – | – | – | – | – | – | – | – |
| 1.95 (≈ 5.22 µM) | 3.9 (≈ 10.4 µM) | 1.95 (≈ 5.22 µM) | 1.95 (≈ 5.22 µM) | 1.95 (≈ 5.22 µM) | 1.95 (≈ 5.22 µM) | – | – | – | O=C(NNC(=S)Nc1cccc(Cl)c1)c1cccc(C(F)(F)F)c1 [Compound 3a, 4-(3-Chlorophenyl)-1-(3-trifluoromethylbenzoyl)thiosemicarbazide] | 14800 (≈ 39500 µM) | 1.395 ± 0.232 | 48.3% | 1000 (≈ 2680 µM) | 15.6 (≈ 41.8 µM) | 1000 (≈ 2680 µM) | 15.6 (≈ 41.8 µM) | 1000 (≈ 2680 µM) | 15.6 (≈ 41.8 µM) | 1000 (≈ 2680 µM) | – |
| 31.2 (≈ 87.5 µM) | 31.2 (≈ 87.5 µM) | 15.6 (≈ 43.7 µM) | 15.6 (≈ 43.7 µM) | 7.81 (≈ 21.9 µM) | 15.6 (≈ 43.7 µM) | 174.4 | 15.63 to 31.25 | 7.8 to 31.25 | O=C(NNC(=S)Nc1cccc(F)c1)c1cccc(C(F)(F)F)c1 [Compound 3e, 1-(3-Trifluoromethylbenzoyl)-4-(3-fluorophenyl)thiosemicarbazide] | – | 1.274 ± 0.121 | 52.8% | – | > 1000 | > 1000 | > 1000 | > 1000 | > 1000 | > 1000 | > 1000 |

Further lines, the compound ahead of its results:

| Compound | MIC [2] [µg/mL] | MIC [3] [µg/mL] | MIC [4] [µg/mL] | MIC [5] [µg/mL] | MIC [6] [µg/mL] | MIC [7] [µg/mL] | melting point [°C] | MIC range ([8]; S. aureus ATCC 43300 MRSA and all MSSA reference strains) [µg/mL] | MIC range (Gram-positive bacteria) [µg/mL] | LC50 (Rhabditis sp.) [µg/mL] | MDA [1] [mM × 10^−3] | Antioxidative Potential Value [1] | MBC ([8]; Staphylococcus aureus, all tested S. aureus reference strains) [µg/mL] | MBC [2] [µg/mL] | MBC [3] [µg/mL] | MBC [4] [µg/mL] | MBC [5] [µg/mL] | MBC [6] [µg/mL] | MBC [7] [µg/mL] | MBC (Gram-positive bacteria) [µg/mL] |
| --- | --- | --- | --- | --- | --- | --- | --- | --- | --- | --- | --- | --- | --- | --- | --- | --- | --- | --- | --- | --- |
| FC(F)(F)c1cccc(-c2n[nH]c(=S)n2-c2cccc(Cl)c2)c1 [Compound 4, 4-(3-Chlorophenyl)-5-(3-trifluoromethylphenyl)-2,4-dihydro-3H-1,2,4-triazole-3-thione] | 500 (≈ 1410 µM) | > 1000 | 1000 (≈ 2810 µM) | > 1000 | > 1000 | > 1000 | – | – | – | 370 (≈ 1040 µM) | 2.022 ± 0.121 | 25.1% | – | – | – | – | – | – | – | – |
| Cc1cccc(NC(=S)NNC(=O)c2cccc(C(F)(F)F)c2)c1 [Compound 3d, 1-(3-Trifluoromethylbenzoyl)-4-(3-methylphenyl)thiosemicarbazide] | 1000 (≈ 2830 µM) | > 1000 | 1000 (≈ 2830 µM) | > 1000 | > 1000 | > 1000 | 230.7 | – | – | – | 1.320 ± 0.143 | 50.1% and 51.1% | – | – | – | – | – | – | – | – |
| CCCCNC(=S)NNC(=O)c1cccc(C(F)(F)F)c1 [Compound 3c, 4-Butyl-1-(3-trifluoromethylbenzoyl)thiosemicarbazide] | 1000 (≈ 3130 µM) | > 1000 | 1000 (≈ 3130 µM) | > 1000 | > 1000 | > 1000 | 161.6 | – | – | – | 1.773 ± 0.077 | 34.3% | – | – | – | – | – | – | – | – |
| COc1cccc(NC(=S)NNC(=O)c2cccc(C(F)(F)F)c2)c1 [Compound 3b, 1-(3-Trifluoromethylbenzoyl)-4-(3-methoxyphenyl)thiosemicarbazide] | > 1000 | > 1000 | 500 (≈ 1350 µM) | > 1000 | > 1000 | > 1000 | 181.3 | – | – | – | 1.703 ± 0.177 | 36.9% | – | – | – | – | – | – | – | – |

Source: paper PMC11013662, “New Thiosemicarbazide Derivatives with Multidirectional Biological Action” (Molecules, 2024)
